The values that follow come from patent publication US20220026420A1, “MOLECULES AND METHODS FOR IMPROVED IMMUNODETECTION OF SMALL MOLECULES SUCH AS HISTAMINE” (PRESIDENT AND FELLOWS OF HARVARD COLLEGE, priority 2018, published 2022).

In assay [1] the test system is anti-histamine antibody. The experiment in a line: Competitive histamine ELISA with PEG linkers on streptavidin plates, anti-IgG HRP detection. The class given is binding. The method, then: To identify an antibody that recognizes free histamine with improved (lower) binding affinities, we used the PEG-mono-histidine linker (Structure 1) as a target with antibodies that we previously screened with BSA-histamine, i.e., the antibodies listed in FIG. 3A. […] The monovalent histidine linker (25 μM) 86 was added for 1 hour, and then 5 μg ml^−1 anti-histamine antibody was incubated with different concentrations of soluble histamine for 1 hour at room temperature on a shaker 88. Finally, anti-IgG labelled HRP 810 was used to detect the bound antibodies.
The monovalent histidine linker (25 μM) 86 was added for 1 hour, and then 5 μg ml^−1 anti-histamine antibody was incubated with different concentrations of soluble histamine for 1 hour at room temperature on a shaker 88. Finally, anti-IgG labelled HRP 810 was used to detect the bound antibodies.
Histamine detection assay could be performed in two formats. The first format includes the immobilization of histamine conjugates to the solid support while the second format includes the immobilization of anti-histamine antibody on the solid support. For the immobilization of histamine conjugates the immobilization sample was prepared in 0.2 M carbonate-bicarbonate buffer (pH 9.4). Immobilisation samples herein refers to BSA-histamine, Streptavidin, and not limited to BSA-Histidine Samples. A high binding polystyrene 96 well ELISA plate was coated with 100 microliters of immobilization sample and the plates were incubated overnight at 4° C. Each well was then washed thrice with 0.01M phosphate-buffered saline with 0.05% Tween 20 (pH 7.4). To each well was then added 250 microliters 1% BSA solution prepared in 0.01M phosphate-buffered saline with 0.05% Tween 20 (pH 7.4) for 1 hour at ambient temperature. Each well was then washed three times with 0.01M phosphate-buffered saline with 0.05% Tween 20 (pH 7.4). For Streptavidin coated plates, to each well was then added 100 microliters of linkers prepared in 0.1% BSA in 0.01M phosphate-buffered saline with 0.05% Tween 20 (pH 7.4) as described in the other sections for 2 hours at ambient temperature on a shaker at 260 rpm. Each well was then washed three times with 0.01M phosphate-buffered saline with 0.05% Tween 20 (pH 7.4). The plate was then incubated with 50 microlitres of different concentration of free histamine and co-incubated with anti-histamine antibody for 1 hour at ambient temperature. […]. Anti-histamine antibody was prepared in 0.1% BSA in 0.01M phosphate-buffered saline with 0.05% Tween 20 (pH 7.4). After the incubation, each well was washed three times with 0.01M phosphate-buffered saline with 0.05% Tween 20 (pH 7.4). […]

Assay [2] concerns anti-histamine antibody conjugated to HRP. The experiment in a line: Refined 5 min histamine ELISA with anti-histamine antibody conjugated to HRP. As to conditions: for starting signal compared to PEG-mono histidine: 5 min assay; for Kd: Hill equation fit without the 0 nM histamine data point, read-out: dissociation constant (Kd). Format: binding. How it is done: The assay was further refined to decrease the total assay time. This was achieved by conjugating the anti-histamine antibody to the detection enzyme HRP 192 as depicted by FIG. 19. The resultant assay could be completed within 5 min. For the present study, only PEG-mono histidine and PEG-dual histidine were used. FIG. 20A and FIG. 20B show the results obtained from the study.
The data points obtained were fitted using a Hill equation which further assisted to characterize the linkers under study.
Histamine detection assay could be performed in two formats. The first format includes the immobilization of histamine conjugates to the solid support while the second format includes the immobilization of anti-histamine antibody on the solid support. For the immobilization of histamine conjugates the immobilization sample was prepared in 0.2 M carbonate-bicarbonate buffer (pH 9.4). Immobilisation samples herein refers to BSA-histamine, Streptavidin, and not limited to BSA-Histidine Samples. A high binding polystyrene 96 well ELISA plate was coated with 100 microliters of immobilization sample and the plates were incubated overnight at 4° C. Each well was then washed thrice with 0.01M phosphate-buffered saline with 0.05% Tween 20 (pH 7.4). To each well was then added 250 microliters 1% BSA solution prepared in 0.01M phosphate-buffered saline with 0.05% Tween 20 (pH 7.4) for 1 hour at ambient temperature. Each well was then washed three times with 0.01M phosphate-buffered saline with 0.05% Tween 20 (pH 7.4). For Streptavidin coated plates, to each well was then added 100 microliters of linkers prepared in 0.1% BSA in 0.01M phosphate-buffered saline with 0.05% Tween 20 (pH 7.4) as described in the other sections for 2 hours at ambient temperature on a shaker at 260 rpm. Each well was then washed three times with 0.01M phosphate-buffered saline with 0.05% Tween 20 (pH 7.4). The plate was then incubated with 50 microlitres of different concentration of free histamine and co-incubated with anti-histamine antibody for 1 hour at ambient temperature. […]. Anti-histamine antibody was prepared in 0.1% BSA in 0.01M phosphate-buffered saline with 0.05% Tween 20 (pH 7.4). After the incubation, each well was washed three times with 0.01M phosphate-buffered saline with 0.05% Tween 20 (pH 7.4). The plates were then incubated with a secondary antibody labelled with HRP prepared in 0.1% BSA in 0.01M phosphate-buffered saline with 0.05% Tween 20 (pH 7.4) in for 1 hour at ambient temperature. After the incubation, each well was washed three times with 0.01M phosphate-buffered saline with 0.05% Tween 20 (pH 7.4). Each well was then incubated with TMB turbo (150 microlitres) for 30 minute (measurement at a wavelength of 650 nm) followed by addition of 150 microlitres of 0.16 M Sulphuric acid to stop the solution in some examples where measurements are taken at a wavelength of 450 nm. […] Independent incubation time is described in each section.

The target of assay [3] is anti-histamine antibody. The experiment in a line: 5-minute electrochemical assay in spiked human plasma samples. The class given is binding. From the text:
The Immuno-assay developed on the ELISA plates using PEG-dual Histidine was translated to an electrochemical platform to develop a biosensor for free histamine detection in human plasma samples.

Assay [4] concerns anti-histamine antibody. The experiment in a line: Histamine ELISA in spiked human plasma samples, conventional plate versus BSA-glutaraldehyde surface chemistry. The class given is binding. As to conditions: FIG. 28. How it is done: In order for the assay design to be used for clinical applications for the rapid quantification of allergy severity, using clinical samples (e.g. human plasma, serum) is one of the most critical aspects. An ELISA plate was prepared using conventional means as shown in FIG. 19 using PEG-dual-histidine. In an alternative approach, an ELISA plate was prepared using the BSA-glutaraldehyde surface chemistry as previously described in international Application No. PCT/US2018/044076, the content of which is herein incorporated by reference. In contrast to the previously described system, no nanoparticles were used. Therefore BSA can be denatured and combined with glutaraldehyde and used to coat ELISA wells. This is then activated using and (1-ethyl-3-(3-dimethylaminopropyl)carbodiimide hydrochloride)/[…] (EDC/NHS) to link to streptavidin which allows attachment of biotin-PEG-dual-histidine. It can be clearly seen full blocking of the ELISA plate when human plasma samples are used for histamine detection. […] As per to date, no method exists to detect histamine in less than 10 minutes.

Assay [5] has as its system anti-histamine antibody conjugated to HRP. The experiment in a line: ELISA affinity of anti-histamine antibody-HRP to different linkers, without free histamine. As to conditions: 5 minutes, no free histamine, compared to PEG-mono-histidine linker, FIG. 26. Format: binding. From the text: FIG. 26 is a plot of a comparison of PEG-mono histamine with PEG-mono histidine using streptavidin coated ELISA plates. As illustrated, the data presents the affinity of anti-histamine antibody conjugated to HRP to different histamine conjugate linkers. As in the previous studies, streptavidin modified plates were used, here to study PEG-Mono-Histamine, PEG-mono-Histidine, PEG-phenyl-histidine and PEG-glutamate-histidine. The assay format was as per FIG. 19 without free histamine in the solution. The modified plates were then exposed to different concentrations of anti-histamine antibodies conjugated with HRP for 5 minutes.
(In general: ELISA stands for enzyme-linked immunosorbent assay.)

In assay [6] the test system is anti-histamine antibody. The experiment in a line: Electrochemical biosensor for free histamine detection. Format: binding. As to conditions: gold electrode, FIG. 12B. How it is done: The Immuno-assay developed on the ELISA plates was translated to an electrochemical platform to provide a biosensor for free histamine detection. The lowest concentration tested with the sensor was 2.7 nM which generated a statistically significant difference from the background. […] FIG. 12B is a semi-log plot showing the calibration curves for the electrochemical sensor using the structure depicted by FIG. 12A. Detection occurs as free […] competes and displaces Biotin-PEG6-Histidine conjugate from the anti-histamine.

Assay [7] relates to Monoclonal Anti-Dinitrophenyl antibody conjugated with HRP. The experiment in a line: Competitive DNP ELISA with DNP linkers on streptavidin plates. The class given is binding, mouse. As to conditions: FIG. 25. The method, then: Monoclonal Anti-Dinitrophenyl antibody produced in mouse (D8406) and 2,4-Dinitrophenol (D198501 was purchased from Sigma. The anti-DNP antibody was directly conjugated with HRP using a commercial kit e.g., LIGHTENING-LINK™ Antibody Labeling Kits available from Novus Biolgicals. Once again ELISA plate coated with streptavidin was used as described in FIG. 19. After blocking, the plates were incubated with the respective linker. Different concentrations of DNP with anti-DNP antibody was co-incubated for 45 minutes at room temperature in the dark. After incubation, the wells were washed 3 times with 200 μL PBST and incubated with 150 μL TMB for 10 minutes. Finally, 150 μL of stop solution was added and absorbance measurement was observed. FIG. 25 is a plot showing ELISA results with Mono-DNP linker (blue) versus PEG-Dual-DNP linker (red). As with the dual histadine linkers, a clear difference could be seen between single and dual DNP linker. There is nearly a 30% increase in the signal intensity from single to dual DNP molecule.

Assay [8] deals with anti-histamine antibody labelled with HRP. The experiment in a line: 5 min histamine ELISA with BSA-PEG-mono-Histidine conjugate coated plates. The class given is binding. As to conditions: 5 min incubation, FIG. 23. The method, then:
The thiol-PEG-mono Histidine linker was attached to BSA as follows. A 1 mL aliquot of maleimide conjugation buffer obtained from Thermo scientific was added to 10 mg of purified thiol-PEG-mono Histidine linker. Subsequently, the 1 mL solution containing the thiol-PEG-mono Histidine was added to 5 mg of commercially available BSA-maleimide substrate and allowed to react at room temperature for 4 h to provide the histidine-PEG-BSA conjugate. The histidine-PEG-BSA conjugate was purified using a 10K spin column. The histidine-PEG-BSA conjugate obtained was then used to modify the ELISA plate wells and assay was performed using a 5 min incubation time. […] The steps include coating the plates with BSA-PEG-Histidine conjugate 222, blocking with BSA 224, and incubation with HRP labeled anti-histamine antibody and free histamine 226. FIG. 23 presents the results obtained and compared to BSA-histamine (commercial, FIG. 5). […] The used and anti-histamine antibody labelled with HRP in a 5 min incubation time assay.

Consider `NC(=O)C(CCCCNC(=O)C(CCCCNC(=O)C(N)Cc1c[nH]cn1)NC(=O)C(N)Cc1c[nH]cn1)NC(=O)CCOCCOCCOCCOCCNC(=O)CCCCC1SC[C@H]2NC(=O)N[C@@H]12` (stereo partly drawn) [PEG-dual Histidine, Biotin-PEG-Dual-Histidine], for which the “starting signal compared to PEG-mono-histidine” value in the assay on anti-histamine antibody [1] (5 min incubation of anti-histamine antibody, FIG. 18A) is given as “increased starting signal”. Further, the “antibody binding specificity and sensitivity compared to the single histidine conjugate” value with anti-histamine antibody [1] (FIG. 11) is on record as “significant improvement”. Moreover, the “starting signal compared to PEG-mono histidine” value in assay [2] is given as “higher starting signal”. Further, the “dynamic range compared to PEG-mono histidine” value in assay [2] (FIG. 21) is recorded as “broader dynamic range”. Also, the Kd in assay [2] (FIG. 21) amounted to 280 nM; on anti-histamine antibody [3] (Hill equation fit without the 0 nM histamine data point, human plasma), 6.76 nM. For the same compound, in the assay with anti-histamine antibody [3] (spiked human plasma, FIG. 24), the “histamine concentration generating a statistically significant current change” value stood at 3.75 nM. For the same compound, the “histamine detection in spiked human plasma” value in the assay on anti-histamine antibody [4] (BSA-glutaraldehyde surface chemistry, under 10-minute assay) is on record as “clear detection of histamine”; in the assay on anti-histamine antibody [4] (ELISA plate prepared by conventional means) it was “full blocking”.
Take `NC(=O)C(CCCCNC(=O)C(CCC(=O)O)CC(=O)C(N)Cc1cnc[nH]1)NC(=O)CCOCCOCCOCCOCCNC(=O)CCCCC1SC[C@H]2NC(=O)N[C@@H]12` (stereo partly drawn) [PEG-glutamate-histidine, Biotin-PEG-Glutamate-Histadine]: the “binding affinity of anti-histamine antibody” value (from here on “binding affinity”) in assay [5] is listed as “nearly no binding”.
On to `NC(Cc1c[nH]cn1)C(=O)NCCOCCOCCOCCOCCOCCOCCNC(=O)CCCCC1SC[C@H]2NC(=O)N[C@@H]12` (stereo partly drawn) [PEG-mono Histidine, Biotin-PEG-Mono-Histidine], for which the “signal enhancement and sensitivity versus immobilized BSA-histamine” value with anti-histamine antibody [1] (FIG. 10) is reported as “significantly improved”. For the same compound, the “lowest concentration tested generating a statistically significant difference from the background” value with anti-histamine antibody [6] turned out to be 2.7 nM. In assay [2] (FIG. 21), the Kd was 449 nM.
`NC(=O)C(CCCCNC(=O)C(Cc1ccccc1)NC(=O)C(N)Cc1cnc[nH]1)NC(=O)CCOCCOCCOCCOCCNC(=O)CCCCC1SC[C@@H]2NC(=O)N[C@H]12` (stereo partly drawn) [PEG-phenyl-histidine, Biotin-PEG-Phenyl-Histadine]: the “sensitivity of the assay compared to PEG-mono-histidine” value in assay [2] (5-minute histamine assay, FIG. 27) was “no significant difference”. For the same compound, the “starting signal compared to PEG-mono histidine” value in assay [2] is on record as “lower starting signal”. For the same compound, the “binding affinity” value in assay [5] is on record as “decreased significantly”.
Take `NC(=O)C(CCCCNC(=O)C(CCCCNc1cc([N+](=O)[O-])ccc1[N+](=O)[O-])Nc1cc([N+](=O)[O-])ccc1[N+](=O)[O-])NC(=O)CCOCCOCCOCCOCCNC(=O)CCCCC1SC[C@H]2NC(=O)N[C@@H]12` (stereo partly drawn) [dual DNP, Biotin-PEG-Dual-DNP]: the “increase in the signal intensity from single to dual DNP molecule” value in assay [7] (45 min co-incubation) was roughly 30%. Further, in assay [7], the “dynamic range compared to single DNP linker” value is listed as “broader dynamic range”.
Consider “PEG-mono Histidine modified BSA: thiol-PEG-mono Histidine linker (Structure 5) attached to commercially available BSA-maleimide”, for which the “sensitivity towards free histamine compared to BSA-histamine (commercial)” value in assay [8] is “increased sensitivity”.
With “biotin-EG6-histamine [PEG-mono-histamine]”, in the assay on anti-histamine antibody [1] (concentration range studied, streptavidin coated plates, FIG. 15), the “detection of free histamine” value is on record as “could not be detected”. For the same compound, the “binding affinity” value in assay [5] is given as “high binding affinity”.

What is called Kd is a measure of binding affinity in units of concentration.
